Laboratory results: patent US8022102B2, “Unsaturated tetracyclic tetrahydrofuran derivatives” (Janssen Pharmaceutica, NV, priority 2004, dated 2011)
Where a name gives a salt, the structure may show the parent alone. Read-outs that look alike come from different tables or passages of the source.

Key:
[1] = molecular target: T1, human cloned 5-HT2A receptor (Homo sapiens, UniProt P28223); assay: In vitro binding affinity for 5-HT2A receptor (radioligand binding); conditions: human cloned 5-HT2A receptor, radioligand binding
T1 construct: expressed in transfected cells; host or cells: L929 cells
T1 sequence (P28223 whole entry): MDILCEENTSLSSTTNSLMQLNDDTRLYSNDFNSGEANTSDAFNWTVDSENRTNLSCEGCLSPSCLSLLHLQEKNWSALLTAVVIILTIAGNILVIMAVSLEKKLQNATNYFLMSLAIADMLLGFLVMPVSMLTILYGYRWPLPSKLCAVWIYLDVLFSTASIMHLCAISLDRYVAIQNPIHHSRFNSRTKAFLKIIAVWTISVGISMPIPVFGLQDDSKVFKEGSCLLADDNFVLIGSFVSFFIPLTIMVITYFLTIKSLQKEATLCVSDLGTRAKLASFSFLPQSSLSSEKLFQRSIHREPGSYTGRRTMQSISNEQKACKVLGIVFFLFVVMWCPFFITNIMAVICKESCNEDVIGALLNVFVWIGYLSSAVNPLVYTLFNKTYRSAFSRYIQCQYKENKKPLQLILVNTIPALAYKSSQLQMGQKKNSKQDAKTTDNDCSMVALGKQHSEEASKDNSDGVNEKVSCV
Procedure, shortened: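 Competition binding used human cloned 5-HT2A receptor expressed in L929 cells with [^125I]R91150 as radioligand, incubated with varying test-compound concentrations to equilibrium. Bound and free radioactivity were separated and receptor-bound activity counted.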

[2] = molecular target: T2, human Dopamine D2L receptor (Homo sapiens, UniProt P14416); assay: In vitro binding affinity for human D2L receptor ([3H]Spiperone); conditions: human D2L receptor-transfected CHO cell membranes, [3H]Spiperone
T2 construct: expressed in transfected cells; host or cells: CHO cells
T2 sequence (P14416 whole entry): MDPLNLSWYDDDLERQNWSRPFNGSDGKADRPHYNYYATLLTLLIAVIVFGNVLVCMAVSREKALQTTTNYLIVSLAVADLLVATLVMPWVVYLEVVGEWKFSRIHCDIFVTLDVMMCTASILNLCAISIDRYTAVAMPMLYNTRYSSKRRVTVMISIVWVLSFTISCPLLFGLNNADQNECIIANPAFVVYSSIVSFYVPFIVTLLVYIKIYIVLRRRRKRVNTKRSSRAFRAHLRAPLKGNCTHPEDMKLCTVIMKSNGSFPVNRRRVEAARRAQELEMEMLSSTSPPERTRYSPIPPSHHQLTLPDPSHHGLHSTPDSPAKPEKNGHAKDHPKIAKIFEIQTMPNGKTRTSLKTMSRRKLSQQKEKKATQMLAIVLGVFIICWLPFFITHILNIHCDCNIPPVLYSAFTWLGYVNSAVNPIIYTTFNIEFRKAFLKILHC
Procedure, shortened: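 Membranes from CHO cells expressing human D2L incubated 30 min at 37° C. with [3H]Spiperone (diluted to 2 nmol/L before addition) in Tris-HCl buffer, pH 7.7, with NaCl, CaCl2, MgCl2, KCl. Non-specific binding defined with 10^−6 mol/l Butaclamol; filtered, scintillation-counted, competition curves fitted.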

[3] = molecular target: T3, human cloned 5-HT2C receptor (Homo sapiens, UniProt P28335); assay: In vitro binding affinity for 5-HT2C receptor (radioligand binding); conditions: human cloned 5-HT2C receptor, radioligand binding
T3 construct: expressed in transfected cells; host or cells: CHO cells
T3 sequence (P28335 33-458): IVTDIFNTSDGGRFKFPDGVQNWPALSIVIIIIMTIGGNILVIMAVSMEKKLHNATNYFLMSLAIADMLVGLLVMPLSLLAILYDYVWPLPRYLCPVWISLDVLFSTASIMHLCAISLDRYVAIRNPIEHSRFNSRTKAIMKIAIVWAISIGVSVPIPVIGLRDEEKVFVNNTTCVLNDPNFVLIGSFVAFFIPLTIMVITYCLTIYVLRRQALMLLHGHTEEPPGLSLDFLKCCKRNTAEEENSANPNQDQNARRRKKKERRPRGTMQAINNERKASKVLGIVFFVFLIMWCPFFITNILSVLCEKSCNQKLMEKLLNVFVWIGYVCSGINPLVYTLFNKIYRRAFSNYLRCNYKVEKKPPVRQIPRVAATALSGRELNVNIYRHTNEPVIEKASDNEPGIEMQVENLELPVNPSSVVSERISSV
Procedure, shortened: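 Competition binding: test compound at various concentrations incubated with receptor preparation and radioligand to equilibrium. Receptor-bound radioactivity was separated from free and counted, with inhibition of radioligand binding reflecting affinity.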

NET = molecular target: T4, NET (Rattus norvegicus, UniProt Q9WTR4); assay: In vitro determination of NET reuptake inhibition ([3H]Nixosetine binding, rat brain cortex); conditions: rat brain cortex, [3H]Nixosetine
T4 construct: Cortex from rat brain was collected and homogenised; from tissue; host or cells: rat brain cortex
T4 sequence (Q9WTR4 1-597): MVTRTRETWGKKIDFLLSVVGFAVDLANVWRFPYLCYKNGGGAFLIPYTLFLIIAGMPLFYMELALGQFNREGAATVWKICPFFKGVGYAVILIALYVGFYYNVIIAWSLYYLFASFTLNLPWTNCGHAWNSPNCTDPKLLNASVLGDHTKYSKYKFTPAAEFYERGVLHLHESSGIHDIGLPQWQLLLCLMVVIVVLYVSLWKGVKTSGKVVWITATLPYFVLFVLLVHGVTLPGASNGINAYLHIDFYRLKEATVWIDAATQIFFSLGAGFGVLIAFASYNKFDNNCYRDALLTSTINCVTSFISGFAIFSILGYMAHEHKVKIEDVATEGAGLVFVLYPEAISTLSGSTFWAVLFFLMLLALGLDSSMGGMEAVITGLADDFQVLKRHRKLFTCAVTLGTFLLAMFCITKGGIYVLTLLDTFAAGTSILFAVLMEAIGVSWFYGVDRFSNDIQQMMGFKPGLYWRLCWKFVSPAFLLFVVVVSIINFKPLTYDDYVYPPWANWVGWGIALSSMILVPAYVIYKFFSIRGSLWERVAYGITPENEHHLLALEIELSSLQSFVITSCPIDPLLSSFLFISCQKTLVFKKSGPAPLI
Description: Cortex from rat brain was collected and homogenised using an Ultra-Turrax T25 and a Dual homogeniser in ice-cold homogenising buffer containing Tris, NaCl and KCl (50 mM, 120 mM and 5 mM, respectively, pH 7.4) prior to dilution to an appropriate protein concentration optimised for specific and non-specific binding. […] Membrane-bound activity was detected by filtration through a Packard Filtermate harvester onto GF/B Unifilterplates, washed with ice-cold Tris-HCl buffer, containing NaCl and KCl (50 mM, 120 mM and 4 mM; pH 7.4; 6×0.5 ml). Filters were allowed to dry for 24 h before adding scintillation fluid. Scintillation fluid was allowed to saturate filters for 24 h before counting in a Topcount scintillation counter. Percentage specific bound and competition binding curves were calculated using S-Plus software (Insightful).

[4] = read-out: NET Reuptake Inhibition (converted)

SMILES | melting point [°C] | IC50 ([1]; read-out: h-5HT2A (converted)) [nM] | IC50 ([2]; read-out: h-D2L (converted)) [nM] | IC50 ([3]; read-out: h-5HT2C (converted)) [nM] | IC50 (NET; [4]) [nM] | IC50 ([1]; h-5HT2A) [nM] | IC50 ([2]; h-D2L) [nM] | IC50 ([3]; h-5HT2C) [nM] | IC50 (NET; NET Reuptake Inhibition) [nM]
CN(C)CC1CC2=C(O1)c1ccsc1Cc1ccccc12 (centres unmarked) [Compound 131] | 174 to 176 | 39.8 | 200 | 7.94 | 794 | – | – | – | –
CNCC1CC2=C(O1)c1ccccc1C(C)c1ccccc12 (centres unmarked) [Compound 7] | – | 50.1 | 2000 | 20 | 63.1 | – | – | – | –
O=C(OCc1ccccc1)N1CCN(CC2CC3=C(O2)c2cc(F)ccc2Oc2ccccc23)CC1 (centres unmarked) [Compound 70] | – | 1000 | 251 | 631 | > 10000 | – | – | – | –
O=S(=O)(c1ccccc1)N1CCN(CC2CC3=C(O2)c2cc(F)ccc2Cc2ccccc23)CC1 (centres unmarked) [Compound 48] | – | 398 | 3160 | 200 | > 10000 | – | – | – | –
O=C(Oc1ccccc1)N1CCN(CC2CC3=C(O2)c2cc(F)ccc2Oc2ccccc23)CC1 (centres unmarked) [Compound 66] | – | – | – | – | – | 126 | 794 | 316 | 1260
Cc1ccc(S(=O)(=O)N2CCN(CC3CC4=C(O3)c3cc(F)ccc3Oc3ccccc34)CC2)cc1 (centres unmarked) [Compound 50] | – | 200 | 2000 | 316 | 1580 | – | – | – | –
CNCC1CC2=C(O1)c1cc(F)ccc1Cc1ccccc12 (centres unmarked) [Compound 2] | – | 0.631 | 79.4 | 1 | 15.8 | – | – | – | –
COc1ccc(OC(=O)N2CCN(CC3CC4=C(O3)c3cc(F)ccc3Oc3ccccc34)CC2)cc1 (centres unmarked) [Compound 68] | – | – | – | – | – | 63.1 | 794 | 251 | 1580
CN(CCC(=O)O)C[C@H]1CC2=C(O1)c1cc(F)ccc1Cc1ccccc12 [Compound 108] | – | 12.6 | 3980 | 12.6 | 398 | – | – | – | –

Second part, led by results:

melting point [°C] | SMILES | IC50 ([1]; read-out: h-5HT2A (converted)) [nM] | IC50 ([2]; read-out: h-D2L (converted)) [nM] | IC50 ([3]; read-out: h-5HT2C (converted)) [nM] | IC50 (NET; [4]) [nM] | IC50 ([1]; h-5HT2A) [nM] | IC50 ([2]; h-D2L) [nM] | IC50 ([3]; h-5HT2C) [nM] | IC50 (NET; NET Reuptake Inhibition) [nM]
194.7 | CN(CC(=O)O)C[C@H]1CC2=C(O1)c1cc(F)ccc1Cc1ccccc12 [Compound 107] | 10 | 3980 | 7.94 | – | – | – | – | –
240.7 | CCNCC1CC2=C(O1)c1cc(F)ccc1Sc1ccccc12 (centres unmarked) (as salt: oxalate) [Compound 18] | – | – | – | – | – | – | – | –
88.5 | CN(CC(=O)NS(C)(=O)=O)C[C@H]1CC2=C(O1)c1cc(F)ccc1Cc1ccccc12 [Compound 120] | – | – | – | – | – | – | – | –
172.8 | CN(C)CC1CC2=C(O1)c1ccccc1Cc1ccccc12 (centres unmarked) (as salt: oxalate) [Compound 22] | – | – | – | – | – | – | – | –
